Laboratory results reported in the supplement of paper PMC4862054.

Experiments:
Assay in all cases: normalised response (% of control), CellTox Green; higher = less cell death (100 = DMSO, 0 = benzethonium chloride kill control)
Conditions in all cases: incubation time: 72 h
MFM-223 = test system: MFM-223
How it was run: (§1)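 After 72 h with compound in 384-well plates, breast cancer cell lines seeded as 20 µl suspension were read for CellTox Green fluorescence at 485/520 nm. CellTiter-Glo luminescence was then read after 10 min at room temperature. Compound was present at 5 concentrations in 10-fold steps over a 10,000-fold range set per compound, and plates were normalised to 0.1 % DMSO (100) and a positive kill control (0). Values are normalised signals, each at a single concentration.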

MCF-10A = test system: MCF-10A
How it was run: as §1

CAL-51 = test system: CAL-51
How it was run: as §1

CAL-85-1 = test system: CAL-85-1
How it was run: as §1

BT-549 = test system: BT-549
How it was run: as §1

MDA-MB-453 = test system: MDA-MB-453
How it was run: as §1

HCC1937 = test system: HCC1937
How it was run: as §1

HCC1143 = test system: HCC1143
How it was run: as §1

MDA-MB-231 = test system: MDA-MB-231
How it was run: as §1

MDA-MB-436 = test system: MDA-MB-436
How it was run: as §1

HDQ-P1 = test system: HDQ-P1
How it was run: as §1

DU-4475 = test system: DU-4475
How it was run: as §1

MDA-MB-468 = test system: MDA-MB-468
How it was run: as §1

BT-474 = test system: BT-474
How it was run: as §1

Hs578T = test system: Hs578T
How it was run: as §1

HCC1599 = test system: HCC1599
How it was run: as §1

CAL-148 = test system: CAL-148
How it was run: as §1

CAL-120 = test system: CAL-120
How it was run: as §1

Compound | normalised response (MFM-223) [%] | normalised response (MCF-10A) [%] | normalised response (CAL-51) [%] | normalised response (CAL-85-1) [%] | normalised response (BT-549) [%] | normalised response (MDA-MB-453) [%] | normalised response (HCC1937) [%] | normalised response (HCC1143) [%] | normalised response (MDA-MB-231) [%] | normalised response (MDA-MB-436) [%] | normalised response (HDQ-P1) [%] | normalised response (DU-4475) [%] | normalised response (MDA-MB-468) [%] | normalised response (BT-474) [%] | normalised response (Hs578T) [%] | normalised response (HCC1599) [%] | normalised response (CAL-148) [%] | normalised response (CAL-120) [%]
C#Cc1cccc(Nc2ncnc3cc(OC)c(OCCCCCCC(=O)NO)cc23)c1 [CUDC-101] (1000 nM) | 85 | 100 | 86.1 | -33 | 142 | 65.4 | 113 | 85.1 | 49.2 | 72.7 | 101 | 81.3 | 35.1 | 83.7 | 98.8 | 82.2 | 74.4 | 90.9
C#Cc1cccc(Nc2ncnc3cc(OC)c(OCCCCCCC(=O)NO)cc23)c1 [CUDC-101] (10000 nM) | 36.9 | 48.6 | 4.75 | -59 | 108 | 83.7 | 97.7 | 91.9 | 25.8 | 57.5 | 84.6 | 82.4 | -22.4 | 10.6 | 29.1 | 79.8 | -3.26 | 29.1
COc1cccc2c1C(=O)c1c(O)c3c(c(O)c1C2=O)C[C@@](O)(C(C)=O)C[C@@H]3O[C@H]1C[C@H](N)[C@H](O)[C@H](C)O1 [Daunorubicin] (1000 nM) | 101 | 106 | 42.6 | 76.2 | 145 | 120 | 137 | 100 | 127 | 47.9 | 101 | 104 | 322 | 101 | 144 | 138 | 75 | 99.2
CN1CCN(c2ccc3nc(-c4c(N)c5c(F)cccc5[nH]c4=O)[nH]c3c2)CC1 [Dovitinib] (1000 nM) | 102 | 104 | 105 | 97.8 | 131 | 101 | 128 | 104 | 88.5 | 95.8 | 106 | 98.6 | 167 | 97.7 | 80.1 | 106 | 103 | 94
O=c1[nH]cc(F)c(=O)[nH]1 [Fluorouracil] (1000 nM) | 102 | 111 | 114 | 101 | 109 | 87.5 | 94.5 | 110 | 106 | 101 | 107 | 105 | 96.7 | 101 | 60.9 | 101 | 98.5 | 105
C[C@@H]1C=C2C(=O)O[C@@H]3CC[C@H](C1)[C@]23O [Galiellalactone] (50000 nM) | 106 | 102 | 96.6 | 46.6 | 98.7 | 107 | 81.2 | 112 | 121 | 105 | 92.3 | 108 | 135 | 102 | 122 | 114 | 103 | 102
COC1=C2C[C@@H](C)C[C@H](OC)[C@H](O)[C@@H](C)/C=C(\C)[C@H](OC(N)=O)[C@@H](OC)/C=C\C=C(/C)C(=O)NC(=CC1=O)C2=O [Geldanamycin] (10000 nM) | 44.1 | -24.5 | 39.3 | 3.38 | 99 | 82 | -41.7 | 99.5 | 6.32 | 80.8 | 65.2 | 68.2 | -27.4 | 35.9 | 98 | 99.2 | 54.8 | 75.1
Cn1cnc2c(F)c(Nc3ccc(Br)cc3F)c(C(=O)NOCCO)cc21 [MEK-162] (100 nM) | 91.5 | 104 | 103 | 98.2 | 111 | 106 | 60.2 | 115 | 50.2 | 105 | 87.6 | 87.3 | 139 | 101 | 76.4 | 90.6 | 98.4 | 99.8
CCOc1cc2ncc(C#N)c(Nc3ccc(OCc4ccccn4)c(Cl)c3)c2cc1NC(=O)/C=C/CN(C)C [Neratinib] (100 nM) | 103 | 114 | 115 | 93.7 | 105 | 110 | 96 | 115 | 109 | 97.8 | 99.5 | 106 | 75.7 | 78.8 | 90.3 | 107 | 100 | 106
CCOc1cc2ncc(C#N)c(Nc3ccc(OCc4ccccn4)c(Cl)c3)c2cc1NC(=O)/C=C/CN(C)C [Neratinib] (1000 nM) | 100 | 115 | 95.8 | 54 | 101 | 99.9 | 95.7 | 105 | 6.81 | 104 | 55.7 | 94.7 | -68.6 | 77.1 | 120 | 106 | 77.3 | 71.7
COC1=CC(c2cc3ccccc3[nH]2)=N/C1=C\c1[nH]c(C)cc1C [Obatoclax] (10000 nM) | 96.7 | 74.2 | -16.5 | 117 | 78.2 | 96.2 | 95.4 | 91.9 | 0.38 | 102 | 102 | 101 | 82.9 | 94.9 | 129 | 99.9 | 77.3 | 99.2
CC(=O)O[C@H]1C(=O)[C@@]2(C)[C@H]([C@H](OC(=O)c3ccccc3)[C@]3(O)C[C@H](OC(=O)[C@H](O)[C@@H](NC(=O)c4ccccc4)c4ccccc4)C(C)=C1C3(C)C)[C@]1(OC(C)=O)CO[C@@H]1C[C@@H]2O [Paclitaxel] (100 nM) | 51.4 | -6.43 | 25.6 | 21.5 | 65.9 | 98.7 | 84.6 | 99.6 | -43 | 62.8 | 77.4 | 90.4 | 4.61 | 49.4 | 48.5 | 82.7 | 66.4 | 81.6
CC(=O)O[C@H]1C(=O)[C@@]2(C)[C@H]([C@H](OC(=O)c3ccccc3)[C@]3(O)C[C@H](OC(=O)[C@H](O)[C@@H](NC(=O)c4ccccc4)c4ccccc4)C(C)=C1C3(C)C)[C@]1(OC(C)=O)CO[C@@H]1C[C@@H]2O [Paclitaxel] (1000 nM) | 58.8 | 1.34 | 38.7 | 41.7 | 56.5 | 92.1 | 71 | 87.3 | -30 | 49.4 | 81.5 | 95.4 | -32.9 | 43.1 | 18.5 | 86.6 | 86.3 | 82.8
Cn1c(=O)c(F)c(Nc2ccc(I)cc2F)c2c(=O)n(C[C@@H](O)CO)cnc21 [TAK-733] (1000 nM) | 104 | 110 | 105 | 41 | 119 | 109 | 102 | 128 | 64.2 | 97.9 | 94.6 | 70.7 | 87.6 | 102 | 38 | 113 | 98.7 | 87.2
CCS(=O)(=O)c1cccc(-c2cc(C(=O)NC3CCN(C)CC3)c(C)c3[nH]c4ncc(C)cc4c23)c1 [TAK-901] (1000 nM) | 85 | 90 | 36.5 | 58.9 | 41 | 105 | 95.2 | 87.8 | 57.7 | 69.2 | 55 | 97 | 74.3 | 91.5 | 106 | 97.1 | 84.6 | 84.2
